Laboratory results as given in patent publication US7629313B2, “Immunomodulatory polymeric antigens for treating inflammatory pathologies” (Eli Lilly and Company, priority 2003, dated 2009).

Key:
[1] = test system: human monocyte-derived iDC; test: Uptake of fluorescent polymer by iDCs, confocal microscopy; assay type: cell-based; conditions: two minutes incubation at 37° C.; labeled Compound 15 50 μg/ml, FITC-dextran 1 mg/ml
Method: Oregon-green labeled Compound 15 is prepared as described in PCT International Publication WO 01/79242. Briefly, Oregon-green (Molecular Probes, Eugene, Oreg.)-conjugated Lipid II is included in an MtgA-polymerization reaction at a ratio of 1:4 with unlabeled Lipid 11 to produce a 25% Oregon-green labeled polymer. The polymeric material is purified and treated as previously described. For uptake studies, fluorescent Compound 15 at a final concentration of 50 μg/ml, or Lysine-fixable FITC-conjugated dextran (40 kDa size, Molecular Probes, Eugene, Oreg.) at 1 mg/ml, is incubated with human monocyte-derived iDC prepared as described in Example 5 for two minutes at 37° C. After incubation, extracellular probe is removed by washing the cells four times in ice cold complete DC medium (Example 5). Washed cells are then incubated at 37° C. and staining is stopped at two-minute intervals by washing in 1% paraformaldehyde fix diluted in flow wash solution (which also contains the metabolic poison sodium azide; protocol described in Example 5). Glass slide samples are prepared at each time interval and sealed with clear nail polish. Samples are stored at −20° C. and protected from light until analysis on a Radiance 2100 confocal microscope (BioRad Laboratories, Hercules, Calif.).

[2] = test system: human monocyte-derived dendritic cells; test: Kinetics of fluorescent polymer uptake by iDCs, flow cytometry; assay type: cell-based; conditions: labeled Compound 15 50 μg/ml, FITC-dextran 1 mg/ml
Method: In these experiments, human monocyte-derived dendritic cells are prepared as described in Example 5. Dendritic cells are resuspended at 5×10^5 cells/sample and incubated […] at 37° C. At the start of each time course, cells are incubated with either fluorescent Compound 15 at a final concentration of 50 μg/ml or Lysine-fixable FITC-conjugated dextran (40 kDa size, Molecular Probes, Eugene, Oreg.) at 1 mg/ml. At 0, 2, 10, 20, 30, 40, and 50 minutes after the start of incubation, uptake is stopped by washing the cells with four washes of ice cold flow wash buffer (Example 5). The washed cells are fixed in paraformaldehyde also as described in Example 5. Stained, fixed cells are stored at 4° C. protected from light until analysis using a FC500 flow cytometer (Beckman Coulter, Miami, Fla.). Once cells are correctly gated for forward and side scatter profiles, mean fluorescent intensity of the population is evaluated for 10,000 cells/sample. […] To control for non-specific adhesion of the molecules to the cell surface (which could be read as a positive in this assay), cells are also incubated with fluorescent polymers at 0° C. […] At this temperature, signal from neither the control molecule (FITC-dextran) nor Compound 15 increases over time (FIG. 5).

FITC-Dextran
Intracellular localization of polymer in iDCs (confocal images) [1]: Localization of polymer in endocytic vacuoles | Uptake by DC at 0° C. (cells metabolically inactive) [2]: inhibited
